The test has as its target human recombinant P2X7 receptor (Homo sapiens (Human), UniProt Q99572). Kind of test: YO-PRO1 uptake assay in HEK cells stably expressing human P2X7. The format is cell-based. As to conditions: HEK-293 cells expressing human recombinant P2X7; 250 μM ATP, 90 minutes; YO-PRO-1 fluorescence; read-out: IC50 (antagonistic activity with respect to the P2X7 receptor). On the procedure: Cell Line Generation and YO-PRO Assay Cell line generation was performed in general according to established molecular cloning protocols. Specifically, RNA was extracted from human whole blood using the Qiagen RNeasy kit (Qiagen, CH) according to the manufacturer's instructions. […] BC011913) was amplified with the following primers: [NT] and [NT] The amplified sequence was subsequently ligated into a pcDNA3.1 (+) NotI, NheI digested plasmid. Human embryonic kidney (HEK) cells (ATCC CRL-1573, Manassas, Va., USA) were transfected with the pcDNA3.1 (+). hP2X7 plasmid using lipofectamine 2000 (Invitrogen AG, CH) according to the manufacturer's instructions. Following a 24 h exposure to DNA, cells were trypsinized and re-seeded at low density in the presence of 250 μg Geneticin. Geneticin resistant cells were then selected during two consecutive rounds of cloning by serial limiting dilution with visual inspection. […] Specific cell clones were chosen based on RNA and protein expression. […] Cells were grown to confluency in adherent culture at 37° C. in a humidified 5% CO2 incubator (split 1⁄5 every 3-4 days with DMEM, 10% FCS, 1% Penicillin/Streptomycin, 250 μg/ml Geneticin). […] Medium was removed from cells and 50 μl of assay buffer containing 0.5 μM YO-[…] was added into the wells. Solutions of antagonist compounds were prepared by serial dilutions of a 10 mM DMSO solution of the antagonist into PBS using a BioMek (Beckman Coulter). Each concentration was performed in duplicate. […] The cells were incubated with the antagonists of the present invention together with ATP at a final concentration of 250 μM for 90 minutes. During this time period, four time points were taken. Each time point comprised the average of several measurements made within a few seconds. Fluorescence was measured in the FLIPR tetra (Molecular Devices) using the filters appropriate for YO-[…] fluorescence (excitation 485/20, emission 530/25). The FLIPR tetra was equipped with Molecular Devices Screen Works system control software to define and run experimental protocols. […] For IC50 measurements the maximum intensity is plotted against the concentration of compound to determine IC50 values.
Sequence of human recombinant P2X7 receptor (Q99572 whole entry): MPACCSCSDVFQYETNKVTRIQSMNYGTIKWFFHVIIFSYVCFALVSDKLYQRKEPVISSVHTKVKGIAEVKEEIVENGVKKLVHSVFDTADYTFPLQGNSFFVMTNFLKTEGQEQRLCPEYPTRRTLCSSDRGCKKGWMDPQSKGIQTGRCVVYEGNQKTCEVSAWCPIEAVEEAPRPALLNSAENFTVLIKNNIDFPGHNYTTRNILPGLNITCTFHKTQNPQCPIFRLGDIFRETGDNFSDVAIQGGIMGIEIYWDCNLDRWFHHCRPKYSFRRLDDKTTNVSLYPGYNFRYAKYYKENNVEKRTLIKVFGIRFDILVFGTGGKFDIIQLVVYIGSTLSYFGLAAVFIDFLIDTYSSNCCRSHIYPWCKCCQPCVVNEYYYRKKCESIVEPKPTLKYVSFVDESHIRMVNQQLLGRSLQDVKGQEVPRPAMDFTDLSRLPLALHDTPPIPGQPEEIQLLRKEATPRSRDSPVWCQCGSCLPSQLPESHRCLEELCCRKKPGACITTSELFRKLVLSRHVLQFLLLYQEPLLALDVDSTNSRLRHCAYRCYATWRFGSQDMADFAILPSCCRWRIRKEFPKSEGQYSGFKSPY
In the case of `O=C(NC(CO)C1CCCCCC1)C1COc2ncsc21` (centres unmarked) [Example 1, N-(1-cycloheptyl-2-hydroxyethyl)-5,6-dihydrofuro[2,3-d]thiazole-6-carboxamide], the IC50 is 818 nM.

With `O=C(NCC1(c2ccc(Cl)nc2)CCCCC1)C1COc2ncsc21` (centres unmarked) [Example 2, N-((1-(6-chloropyridin-3-yl)cyclohexyl)methyl)-5,6-dihydrofuro[2,3-d]thiazole-6-carboxamide], the half-maximal inhibitory concentration (IC50) came out at 28 nM.

Consider `Cc1ncc(C(CNC(=O)C2COc3ncsc32)N2CCC(F)(F)CC2)cn1` (centres unmarked) [Example 3, N-(2-(4,4-difluoropiperidin-1-yl)-2-(2-methylpyrimidin-5-yl)ethyl)-5,6-dihydrofuro[2,3-d]thiazole-6-carboxamide], for which the IC50 was 2040 nM.

As for `O=C(NCC(c1ccc(C(F)(F)F)nc1)N1CCOCC1)C1COc2ncsc21` (centres unmarked) [Example 4, N-(2-morpholino-2-(6-(trifluoromethyl)pyridin-3-yl)ethyl)-5,6-dihydrofuro[2,3-d]thiazole-6-carboxamide], the IC50 amounted to 332 nM.

Take `O=C(N[C@H](CO)C1CCCCC1)C1CCc2ncsc21` (stereo partly drawn) [Example 5, N-((S)-1-cyclohexyl-2-hydroxyethyl)-5,6-dihydro-4H-cyclopenta[d]thiazole-6-carboxamide]: the concentration for half-maximal inhibition (IC50) was 272 nM.

Turning to `Cc1ncc(C(CNC(=O)C2CCc3ncsc32)N2CCOCC2)cn1` (centres unmarked) [Example 6, N-(2-(2-methylpyrimidin-5-yl)-2-morpholinoethyl)-5,6-dihydro-4H-cyclopenta[d]thiazole-6-carboxamide], the IC50 came out at 1370 nM.

In the case of `Cc1ncc(C(CNC(=O)C2CCc3ncsc32)N2CCC(F)(F)CC2)cn1` (centres unmarked) [Example 7, N-(2-(4,4-difluoropiperidin-1-yl)-2-(2-methylpyrimidin-5-yl)ethyl)-5,6-dihydro-4H-cyclopenta[d]thiazole-6-carboxamide], the IC50 stood at 478 nM.

Turning to `O=C(N[C@H](CO)C1CCCCC1)C1CCOc2ncsc21` (stereo partly drawn) [Example 8, N-((S)-1-cyclohexyl-2-hydroxyethyl)-6,7-dihydro-5H-pyrano[2,3-d]thiazole-7-carboxamide], the half-inhibitory concentration (IC50) came to 340 nM.

For the compound `Cc1ncc(C(CNC(=O)C2CCOc3ncsc32)N2CCOCC2)cn1` (centres unmarked) [Example 9, N-(2-(2-methylpyrimidin-5-yl)-2-morpholinoethyl)-6,7-dihydro-5H-pyrano[2,3-d]thiazole-7-carboxamide], the IC50 was 1430 nM.

As to `O=C(NCC(c1ccc(Cl)nc1)N1CCC(F)(F)CC1)C1CCOc2ncsc21` (centres unmarked) [Example 10, N-(2-(6-chloropyridin-3-yl)-2-(4,4-difluoropiperidin-1-yl)ethyl)-6,7-dihydro-5H-pyrano[2,3-d]thiazole-7-carboxamide], the 50% inhibitory concentration (IC50) stood at 74 nM.

For `C[C@@H](NC(=O)C1CCCc2ncsc21)C1CCCCC1` (stereo partly drawn) [Example 11, N-((R)-1-cyclohexylethyl)-4,5,6,7-tetrahydrobenzo[d]thiazole-7-carboxamide], the IC50 turned out to be 60 nM.

Turning to `O=C(N[C@H](CO)C1CCCCC1)C1CCCc2ncsc21` (stereo partly drawn) [Example 12, N-((S)-1-cyclohexyl-2-hydroxyethyl)-4,5,6,7-tetrahydrobenzo[d]thiazole-7-carboxamide], the IC50 turned out to be 41 nM.

Consider `O=C(NCC1(c2ccc(Cl)nc2)CCCCC1)C1CCCc2ncsc21` (centres unmarked) [Example 13, N-((1-(6-chloropyridin-3-yl)cyclohexyl)methyl)-4,5,6,7-tetrahydrobenzo[d]thiazole-7-carboxamide], for which the IC50 was 3.4 nM.

Take `O=C(NCC1(c2ccc(Cl)nc2)CCC(F)(F)CC1)C1CCCc2ncsc21` (centres unmarked) [Example 14, N-((1-(6-chloropyridin-3-yl)-4,4-difluorocyclohexyl)methyl)-4,5,6,7-tetrahydrobenzo[d]thiazole-7-carboxamide]: the IC50 is 6.3 nM.

As for `O=C(NCC(c1cnc(C(F)(F)F)nc1)N1CCOCC1)C1CCCc2ncsc21` (centres unmarked) [Example 15, N-(2-morpholino-2-(2-(trifluoromethyl)pyrimidin-5-yl)ethyl)-4,5,6,7-tetrahydrobenzo[d]thiazole-7-carboxamide], the IC50 amounted to 33 nM.

With `O=C(N[C@H](CO)C1CCCCC1)C1CCCCc2ncsc21` (stereo partly drawn) [Example 16, N-((S)-1-cyclohexyl-2-hydroxyethyl)-5,6,7,8-tetrahydro-4H-cyclohepta[d]thiazole-8-carboxamide], the IC50 was 348 nM.

Consider `O=C(N[C@H](CO)C1CCCCC1)C1CCCCc2ncsc21` (stereo partly drawn) [Example 17, N-((S)-1-cyclohexyl-2-hydroxyethyl)-5,6,7,8-tetrahydro-4H-cyclohepta[d]thiazole-8-carboxamide], for which the IC50 stood at 543 nM.

By IC50 is commonly meant the concentration at which inhibition is half-maximal.

For the origin of these results see patent US9388198B2, “Heterocyclic amide derivatives as P2X7 receptor antagonists” (ACTELION PHARMACEUTICALS LTD, priority 2014, dated 2016).
